# Data as given in article PMC8620242 (Journal of Advanced Research, 2021).
# Target: nsp12 (Severe acute respiratory syndrome coronavirus 2, UniProt P0DTD1)
# Assay: SPR binding to nsp12
# Set-up: species or system SARS-CoV-2
smiles,measurement,value
"CC1(C)[C@@H](O)CC[C@]2(C)[C@H]3C(=O)C=C4[C@@H]5C[C@@](C)(C(=O)O)CC[C@]5(C)CC[C@@]4(C)[C@]3(C)CC[C@@H]12 [GA, glycyrrhetinic acid]",Kd,416 µM
